Experimental data reported in paper PMC2950867 (Journal of pharmacological and toxicological methods, 2010).
Read-outs that look alike come from different tables or passages of the source.

How the values were obtained:
[1] = ref Horton et al., cited from earlier work; for pKa of the α-amino group: 25 °C, free amino acid
Caco-2 cells [2] = type: cell-based, human; settings: read-out: IC50 TMER 24-hr; Caco-2 monolayers on PET inserts, 24-hr single dosing
Caco-2 cells [3] = type: cell-based, human; settings: for IC50: read-out: IC50 MTT 24-hr, Caco-2 confluent monolayers, 24-hr single dosing

Row | Compound | IC50 (Caco-2 cells [2]) [mM] | IC50 (Caco-2 cells [3]) [mM] | pKa of the α-amino group [1] | other results
1 | N[C@@H](Cc1ccc(O)cc1)C(=O)O [tyrosine] |  |  |  | hydropathy (tendency to prefer a hydrophobic environment) [1]: 0.019 kcal/mol
2 | [Cl][Ni][Cl] [nickel chloride] | 8.4 | 0.968 |  | MTT (cell viability) (Caco-2 cells [3]; 24-hr single exposure at the 24-hr TMER IC50 concentration): 16% of control
3 | NC(=O)C[C@H](N)C(=O)O [asparagine] |  |  | 8.7 | 
4 | N[C@@H](CS)C(=O)O [cysteine] |  |  | 10.7 | 
5 | mercury chloride | 0.09 |  |  | 
6 | O=S(=O)([O-])[O-].[Cu+2] [cupric sulfate] | 1.8 | 1.57 |  | 
7 | [Cl][Mn][Cl] [manganese chloride] | 3.08 | 9.6 |  | 
8 | [Cl][Cd][Cl] [cadmium chloride] | 0.049 | 0.109 |  | 
9 | NCC(=O)O [glycine] |  |  | 9.8 | hydropathy (tendency to prefer a hydrophobic environment) [1]: 0.16 kcal/mol
